Reference: the NIST ThermoML archive (doi:10.1016/j.jct.2012.11.027)

Assay: xn = mol fraction of the nth substance listed
Settings: 101 kPa, Liquid, Linear variable-path acoustic interferometer

C=CC(=O)OC [methyl propenoate] + CCCCCCCCCCO
speed of sound [m/s]
Settings	288.15 K	293.15 K	298.15 K	303.15 K	308.15 K	313.15 K	318.15 K
x1 = 0.0762	1388.2	1370.2	1352.1	1333.5	1318.1	1299.5	1284
x1 = 0.1523	1366.7	1348.2	1330.6	1312.1	1295.8	1276.3	1259.4
x1 = 0.2225	1346.9	1328.3	1310.1	1291.2	1275.1	1255.2	1238.1
x1 = 0.3073	1324.4	1304.9	1286.5	1268.1	1251.5	1231.5	1214.4
x1 = 0.3848	1304.7	1285.2	1267	1248.2	1231.2	1211.3	1194.3
x1 = 0.4622	1286.4	1267	1248.9	1230	1212.8	1193.1	1175.6
x1 = 0.5356	1270.8	1251.3	1233	1214.6	1197	1177.4	1160
x1 = 0.6092	1257.7	1238.3	1219.8	1201.2	1183	1163.6	1145.6
x1 = 0.6768	1247.2	1227.9	1209.4	1190.4	1171.8	1152.1	1133.7
x1 = 0.7443	1238.8	1219.3	1200.6	1181.3	1161.9	1141.8	1123.2
x1 = 0.8089	1233.4	1213.4	1193.9	1174.3	1154.1	1134	1114.4
x1 = 0.8736	1229.8	1209.1	1189.2	1169.1	1147.8	1127.2	1106.9
x1 = 0.9412	1227.4	1206.1	1185.6	1164.6	1142.5	1121.4	1100.4
x1 = 1	1226.6	1204.6	1183.6	1162.2	1139.1	1117.8	1095.7

C=CC(=O)OC [methyl propenoate] + CCCCCCCCO
speed of sound [m/s]
Settings	288.15 K	293.15 K	298.15 K	303.15 K	308.15 K	313.15 K	318.15 K
x1 = 0.077	1371.5	1352.2	1331.5	1310.8	1292.2	1274.2	1256.8
x1 = 0.1554	1352.2	1331.8	1311.5	1290.9	1271.8	1253.4	1235.1
x1 = 0.2304	1333.7	1313.6	1293.4	1273.1	1253.6	1234.9	1216.4
x1 = 0.3053	1316.3	1296.3	1276	1255.8	1236	1217.5	1198.9
x1 = 0.383	1299.9	1280	1259.7	1239.6	1219.7	1200.9	1182.4
x1 = 0.4603	1285	1265.1	1244.7	1224.5	1204.5	1185.9	1167.5
x1 = 0.5321	1272.6	1252.5	1232.1	1212.1	1192.1	1173.4	1154.8
x1 = 0.6038	1262.4	1242	1221.6	1201.3	1181.1	1162.1	1143.1
x1 = 0.6724	1253.7	1233.3	1212.9	1192.3	1171.7	1152.5	1132.8
x1 = 0.741	1246.5	1225.8	1205.4	1184.7	1163.6	1143.8	1123.6
x1 = 0.8052	1241.4	1220.1	1199.4	1178.5	1156.7	1136.5	1115.7
x1 = 0.8698	1236.3	1214.7	1193.7	1172.5	1150.2	1129.6	1108.3
x1 = 0.935	1231.8	1209.6	1188.3	1166.8	1144.2	1123.1	1101.5
x1 = 1	1226.6	1204.6	1183.6	1162.2	1139.1	1117.8	1095.7

C=CC(=O)OC [methyl propenoate] + CCCCCCO
speed of sound [m/s]
Settings	288.15 K	293.15 K	298.15 K	303.15 K	308.15 K	313.15 K	318.15 K
x1 = 0.077	1325.5	1306.4	1290.5	1272	1256.5	1236.3	1216.5
x1 = 0.1542	1311.1	1291.6	1275.3	1256.1	1240.1	1219.7	1199.7
x1 = 0.2299	1297.1	1277.5	1260.7	1241.8	1225.1	1204.8	1185.1
x1 = 0.3057	1284.1	1264.4	1247.4	1228.5	1211.6	1191.6	1171.8
x1 = 0.3834	1272	1252.3	1235.1	1216.4	1199.1	1179.4	1159.6
x1 = 0.4612	1261.7	1242	1224.5	1205.6	1187.9	1168.1	1148.2
x1 = 0.534	1253.5	1233.6	1215.9	1196.7	1178.5	1158.6	1138.4
x1 = 0.6068	1246.6	1226.4	1208.2	1188.7	1169.8	1149.7	1129.3
x1 = 0.672	1241.3	1220.8	1202.2	1182.4	1162.8	1142.4	1121.7
x1 = 0.737	1237.3	1216.6	1197.5	1177.4	1157	1136.3	1115.2
x1 = 0.8046	1233.9	1212.9	1193.4	1172.8	1151.6	1130.6	1109.1
x1 = 0.8722	1231.2	1209.8	1189.8	1168.7	1146.7	1125.4	1103.5
x1 = 0.9361	1229.1	1207.4	1186.7	1165.4	1142.6	1121.2	1099.4
x1 = 1	1226.6	1204.6	1183.6	1162.2	1139.1	1117.8	1095.7

C=CC(=O)OC [methyl propenoate] + CCCCO
speed of sound [m/s]
Settings	288.15 K	293.15 K	298.15 K	303.15 K	308.15 K	313.15 K	318.15 K
x1 = 0.0777	1271.2	1250.8	1230.5	1212.8	1193.9	1174.9	1155
x1 = 0.1555	1261.3	1240.6	1220.1	1202.2	1182.9	1163.7	1143.8
x1 = 0.2273	1253.3	1232.6	1212.2	1194.2	1174.7	1155.5	1135.6
x1 = 0.299	1247	1226.3	1205.9	1187.7	1167.9	1148.7	1128.7
x1 = 0.3791	1241.3	1220.5	1200.2	1181.7	1161.6	1142.2	1122.1
x1 = 0.4593	1236.9	1216.1	1195.7	1176.8	1156.4	1136.8	1116.5
x1 = 0.5344	1233.9	1212.8	1192.4	1173.1	1152.4	1132.5	1111.9
x1 = 0.6095	1231.7	1210.5	1189.9	1170.3	1149.2	1128.9	1108
x1 = 0.6789	1230.3	1208.9	1188.2	1168.2	1146.7	1126.2	1104.9
x1 = 0.7483	1229.2	1207.7	1186.9	1166.6	1144.6	1123.8	1102.3
x1 = 0.8099	1228.5	1206.9	1186	1165.4	1143.1	1122.1	1100.4
x1 = 0.8715	1228	1206.2	1185.3	1164.4	1141.7	1120.6	1098.6
x1 = 0.9358	1227.4	1205.5	1184.5	1163.4	1140.4	1119	1096.9
x1 = 1	1226.6	1204.6	1183.6	1162.2	1139.1	1117.8	1095.7
